Laboratory results published in US20260033466A1, “METHOD AND ANIMAL MODEL FOR INDUCING BCC TUMORS” (FELDAN BIO INC., priority 2022, published 2026).

Legend:
[1] = test system: GFP (indicative of Ptch1 and p53 shRNA expression); test: Immunofluorescence of GFP in skin of BCC mice after induction, no UV-B; type: in vivo, mouse; settings: absence of UV, fluorescence microscopy of skin sections, FIG. 4
Description: Positive GFP fluorescence is indicative of Ptch1 and p53 shRNA expression. […] Positive GFP fluorescence is indicative of Ptch1 and p53 shRNA expression.
For histological staining by immunofluorescence, sections were incubated 5 minutes in room temperature PBS to remove the OCT compound and then drained as much as possible. Slides were then blocked in BSA 3% and stained with anti-GFP antibody (ab6556 Abcam) or anti-Ptch1 (ThermoFisher PA5-87508) or anti-CK14 (BioLegend™ #906004) O/N at 4° C. Sections were then washed thrice (5 minutes each) with PBST and incubated with fluorophore-conjugated antibodies. Following washes (3×5 minutes), 100 μL per slide of ProLong™ Glass NucBlue™ (Invitrogen™) were applied and a coverslip. Slides were incubated overnight in the dark prior to imaging. Slides were imaged within 1-4 days after mounting and left in the dark until that time.
Next, shRNA expression was assessed in the skin of mice, either untreated, or after induction with either tamoxifen alone, doxycycline alone, or tamoxifen/doxycycline in the absence of UV.

BCC tumors = test: Anti-BCC treatment of induced BCC mice (tamoxifen/doxycycline and UV-B); type: in vivo, mouse; settings: begun 37-43 weeks post-induction
mouse Ptch1 = test: shRNA knockdown efficiency reporter assay (Yuan et al. 2014); type: cell-based; settings: Ptch1 mRNA expression normalized to shRen713 (positive control); FIG. 2
Description: Knockdown efficiency was calculated by Ptch1 mRNA expression normalized to shRen713 ([…]).
Knockdown efficiency was calculated by Ptch1 mRNA expression normalized to shRen713 ([…]), a reporter shRNA targeting Renilla Luciferase 713.

Molecule: CC/C(=C(\c1ccccc1)c1ccc(OCCN(C)C)cc1)c1ccccc1 [tamoxifen]
- GFP expression in skin (shRNAs targeting Ptch1 and p53) [1]: no expression of GFP

Molecule: CS(=O)(=O)c1ccc(C(=O)Nc2ccc(Cl)c(-c3ccccn3)c2)c(Cl)c1 [vismodegib]
- tumor appearance (scabbing/crusting) (BCC tumors; oral daily via gastric gavage 5 mg/kg, after 18-25 days of treatment, FIG. 12): visible signs of scabbing/crusting of the tumors

Molecule: CO[C@H]1C[C@@H]2CC[C@@H](C)[C@@](O)(O2)C(=O)C(=O)N2CCCC[C@H]2C(=O)O[C@H]([C@H](C)C[C@@H]2CC[C@@H](OCCO)[C@H](OC)C2)CC(=O)[C@H](C)/C=C(\C)[C@@H](O)[C@@H](OC)C(=O)[C@H](C)C[C@H](C)/C=C/C=C/C=C/1C [everolimus]
- tumor appearance (scabbing/crusting) (BCC tumors; i.p. 3 mg/kg, after 7-12 days of treatment, FIG. 13): visible signs of scabbing/crusting of the tumors

B1: Ptch1.2559: shRNA targeting mouse Ptch1, nucleobases 2776-2796 of SEQ ID NO: 12; selected for the BCC model (nucleic acid)
guide: TCATGCCAAACAATTATAAAATAGTGAAGCCACAGATGTATTTTATAATTGTTTGGCATGA
- knockdown efficiency (mouse Ptch1): 101.24%
